# Test results from PubChem BioAssay (NCI).
# Values joined by “and” are separate entries in the source; they are usually repeats but may differ in a detail not shown here. Identical values can stand only once.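 Values below derive from 48-hour exposures of cells grown in 96-well plates, with endpoints linearly interpolated between the two concentrations bracketing the appropriate inhibition level. Abbreviation: GI50, concentration required for 50% inhibition of growth. TGI: total growth inhibition.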
# How the values were obtained:
# Assay in all cases: NCI anticancer screen, dose series, 48 h
# CAKI-1 renal = tested on: CAKI-1 renal
# HCT-15 colon = tested on: HCT-15 colon
# HOP-62 NSCLC = tested on: HOP-62 NSCLC
# HT29 colon = tested on: HT29 colon
# MCF7 breast = tested on: MCF7 breast
# MOLT-4 leukemia = tested on: MOLT-4 leukemia
# NCI-H226 lung = tested on: NCI-H226 lung
# PC-3 prostate = tested on: PC-3 prostate
Compound,GI50 (CAKI-1 renal),TGI (CAKI-1 renal),GI50 (HCT-15 colon),TGI (HCT-15 colon),GI50 (HOP-62 NSCLC),TGI (HOP-62 NSCLC),GI50 (HT29 colon),TGI (HT29 colon),GI50 (MCF7 breast),TGI (MCF7 breast),GI50 (MOLT-4 leukemia),TGI (MOLT-4 leukemia),GI50 (NCI-H226 lung),TGI (NCI-H226 lung),GI50 (PC-3 prostate),TGI (PC-3 prostate)
Cc1nc2cc(Nc3nc(Nc4ccc(F)cc4)nc(-c4cccs4)n3)ccc2n1Cc1ccccc1,5.45 µM,> 100 µM,3.11 µM,16.3 µM,8.45 µM,> 100 µM,2.12 µM,4.44 µM,2.15 µM,7.91 µM,2.97 µM,9.3 µM,8.23 µM,36.5 µM,2.71 µM,52.2 µM
CN(C)C(=S)Sc1ccc([N+](=O)[O-])cc1[N+](=O)[O-],1.58 µM,4.79 µM,1.46 µM,4.2 µM,8.26 µM,21.3 µM,0.325 µM,1.67 µM,0.777 µM,5.03 µM,2.04 µM,> 42 µM,4.33 µM,17.5 µM,2.17 µM,13.3 µM
CC(C(=O)O)c1cccc(Oc2ccccc2)c1 (configuration not stated),> 100 µM,> 100 µM,> 100 µM,> 100 µM,> 100 µM,> 100 µM,> 100 µM,> 100 µM,> 100 µM,> 100 µM,> 100 µM,> 100 µM,> 100 µM,> 100 µM,> 100 µM,> 100 µM
O=[N+]([O-])c1cccc2ccc(N/N=C/c3ccccc3O)nc12,> 100 µM,> 100 µM,> 100 µM,> 100 µM,> 100 µM,> 100 µM,> 100 µM,> 100 µM,2.34 µM,> 100 µM,0.313 µM,1.16 µM,> 100 µM,> 100 µM,4.67 µM,> 100 µM
COC(=O)c1ccc2c(c1)/C(=C\c1cc(Br)c(O)c(Br)c1)C(=O)N2,4.68 µM,> 25 µM,5.47 µM,> 25 µM,10.5 µM,> 25 µM,4.3 µM,> 25 µM,8.01 µM,> 25 µM,7.59 µM,> 24.1 µM,14.6 µM,> 25 µM,7.68 µM,> 25 µM
O=C(NNc1ccccc1)C(=O)NNc1ccccc1,0.795 µM,> 100 µM,0.746 µM,> 100 µM,> 100 µM,> 100 µM,> 100 µM,> 100 µM,5.67 µM,> 100 µM,1.6 µM,> 100 µM,> 100 µM,> 100 µM,> 100 µM,> 100 µM
CN(C)C/C=C/C(=O)Nc1cc2c(Nc3ccc(F)c(Cl)c3)ncnc2cc1O[C@H]1CCOC1,0.0407 µM and 0.208 µM,8.39 µM and > 10 µM,1.59 µM and 1.33 µM,12.1 µM and > 9.47 µM,2.49 µM and 3.38 µM,6.86 µM and > 10 µM,0.815 µM and 0.756 µM,3.49 µM and > 10 µM,2.23 µM and 2.12 µM,9.14 µM and > 10 µM,2.43 µM and 1.45 µM,11.3 µM and 7.24 µM,2.04 µM and 5.25 µM,8.45 µM and > 10 µM,3.19 µM and 3.26 µM,12.8 µM and > 10 µM
